Assay results from patent publication US20240092846A1, “ENGINEERED CYCLOTIDES WITH POTENT BROAD ANTIMICROBIAL ACTIVITY” (priority 2022, published 2024).
Converted amounts (≈) assume the structure as drawn. “And” between values parts separate entries of the source, which are not always exact repeats. Equal entries are not always repeated. “Also recorded” adds a separate entry of the source. Where two headings read alike, the source gives them in different places.

Key:
[1] = tested on: human HEK293T and A549 epithelial cells
Description: Cytotoxicity Assay. Cellular toxicities against human HEK293T and A549 epithelial cells were evaluated using Resazurin (Alamarblue™, Thermo Fisher Scientific, Waltham, MA). HEK293T cells were grown in minimum essential media (MEM), while A549 cells were grown in Dulbecco's […] (DMEM) supplemented with 10% fetal bovine serum (FBS) and maintained at 37° C. with 5% CO2. For each cell line, 10^4 cells were added to each well in a 96-well polystyrene plate and incubated for 16 h. Peptides were serially diluted two-fold at concentrations ranging from 100-0.2 μM in medium containing 10% FBS in polystyrene 96 well microtiter plates (Corning) for 16 h. After the incubation period, the cells were washed with PBS and treated with 200 μL/well DMEM media supplemented with 10% FBS containing the peptides at the indicated concentration for 22 h at 37° C. in 5% CO2 and then the medium was replaced with fresh growth medium containing resazurin and incubated for another 2 hours. Cell viability was quantified spectrophotometrically and cells incubated in the absence of peptides and containing 2% Triton X-100 (Sigma) served as controls.

[2] = Maximum tolerated dose (MTD) toxicology study
From the text: Colistin was used as a control antibiotic.[28] […] For this purpose, Applicant employed a P. aeruginosa bacterial peritonitis model.[29] This animal model is a well-established acute infection model and is commonly utilized as a common preclinical screening method for new antibiotics.[30] Peritonitis in Balb/c mice (n=10) was established by intraperitoneal injection of 1.5×10^7 colony forming units (CFU) per mouse of P. aeruginosa (Schroeter) Migula (ATCC 27853).
Maximum tolerated dose (MTD) toxicology Studies. The MTD was determined using two different endpoints: weight loss and clinical scoring. Clinical scores were evaluated through activity, appearance and body condition, similar to previously published literature (42). […] Any dose escalation that leads to moderate toxicity (clinical score of >2) was ceased and the dose prior served as the MTD. Mice were monitored every hour for 4 h after injection on the first day. After 24 h, mice were monitored twice daily for another two days until weight and clinical scores were returned to normal. Mice that met the criteria for moribund included a >20% weight loss and clinical score of >3 and were euthanized.

in vitro = conditions: 37° C., LC-MS/MS
Description: This was accomplished by incubating the corresponding peptides in human serum at 37° C. The quantitative analysis of undigested polypeptides was performed using liquid chromatography coupled with tandem mass spectrometry (LC-MS/MS). MCoTI-cyclotides present a very rigid structure,[24] which makes them extremely stable to proteolytic degradation.
Human serum stability. […]. Peptides were dissolved in water at 10 mg/mL concentration. 150 μg of peptides (15 μL) were mixed with 500 μL of human serum and incubated at 37° C. Samples (30 μL) were taken at various time intervals (0-120 h) and serum proteins were precipitated using 180 μL of acetonitrile containing 0.1% TFA. After centrifugation the pellet was dissolved in 8 M GdmCl and the supernatant was lyophilized and re-dissolved in 5% acetonitrile in water containing 0.1% formic acid. Both the supernatant and solubilized pellet fractions were analyzed by HPLC and LC-MS/MS. Each experiment was done in triplicate.

[3] = tested on: clinical isolates of methicillin-resistant S. aureus (MRSA)
Description: (§1) Broad-spectrum antimicrobial activity was evaluated using the broth microdilution assays against two different pathogens from four different species of bacteria (P. aeruginosa, S. aureus, K. pneumoniae, and E. coli) to determine if the cyclotides retained its potent activity. Broth microdilution assays were utilized to determine the minimum inhibitory concentrations (MICs) of our cyclotides according to the CLSI (formerly NCCLS) guidelines modifications as described below (40). The assay utilized cation-adjusted Mueller-Hinton broth (CAMHB) (Becton, Dickinson and Company, Franklin Lakes, NJ) which was prepared according to the manufacturer's instructions. Cyclotide solutions were prepared as 10× solutions in 0.01% acetic acid. Cyclotide were serially diluted two-fold at concentrations ranging from 25-0.05 μM that contained CAMHB and 0.04% bovine serum albumin (BSA) in polypropylene microtiter plates (Corning, Corning, NY). All bacteria were incubated overnight at 37° C. at 200 rpm in CAMHB and bacterial inoculum was adjusted with additional CAMHB to 0.5 McFarland standard through spectrophotometry at 600 nm. […] Study strains included a total of 20 P. aeruginosa and 20 methicillin resistant S. aureus strains from patients with cystic fibrosis at the Keck Medical Center of the University of Southern California. […] Colistin sulphate (Sigma-Aldrich, St Louis, MO) was used as a reference antibiotic for P. aeruginosa and E. coli, while vancomycin hydrochloride and meropenem trihydrate were used as reference antibiotics for S. aureus and K. pneumoniae.

E. coli = conditions: CAMHB
Description: as §1

[4] = tested on: clinical isolates of P. aeruginosa
Description: as §1

CC[C@H](C)[C@@H]1NC(=O)[C@@H]2CSSC[C@@H]3NC(=O)[C@H](C(C)C)NC(=O)CNC(=O)CNC(=O)[C@H](CCCNC(=N)N)NC(=O)[C@H](CCCNC(=N)N)NC(=O)CNC(=O)[C@H](C(C)C)NC(=O)[C@@H]4CSSC[C@H](NC(=O)[C@H](CC(C)C)NC(=O)[C@H](CCCNC(=N)N)NC(=O)CNC(=O)CNC(=O)[C@H](CO)NC(=O)CNC(=O)[C@H](CO)NC(=O)CNC(=O)[C@@H]5CSSC[C@H](NC(=O)[C@H](CC(=O)O)NC(=O)[C@H](CO)NC(=O)[C@H](CC(=O)O)NC(=O)[C@H](CCCNC(=N)N)NC(=O)[C@H](CCCNC(=N)N)NC(=O)[C@H](CSSC[C@H](NC1=O)C(=O)N[C@@H](CCCNC(=N)N)C(=O)NCC(=O)N[C@@H](CC(N)=O)C(=O)NCC(=O)N[C@@H](Cc1ccc(O)cc1)C(=O)N5)NC(=O)[C@H](CCCNC(=N)N)NC(=O)[C@H](CCC(N)=O)NC(=O)[C@H](CC(C)C)NC(=O)[C@H]([C@@H](C)CC)NC(=O)[C@H](CCCCN)NC(=O)[C@@H]1CCCN1C3=O)C(=O)N1CCC[C@H]1C(=O)NCC(=O)N[C@@H](C)C(=O)N2)C(=O)N[C@@H](Cc1ccc(O)cc1)C(=O)N[C@H]1CSSC[C@H](NC(=O)[C@H](Cc2ccccc2)NC(=O)[C@H](CCCNC(=N)N)NC(=O)[C@H](CCCNC(=N)N)NC(=O)[C@H](CCCNC(=N)N)NC1=O)C(=O)N[C@@H](C(C)C)C(=O)N4 [MCo-PG2]
cytotoxicity relative to PG-1 [1]: about three times less toxic than PG-1; also recorded: about three times less cytotoxic than PG-1
MTD at 3 days ([2]; Balb/c, mouse, in vivo, ip): 25 mg/kg
times less toxic than PG-1 in mice ([2]; in vivo toxicity studies): approximately 4
t1/2 in human serum (in vitro): ~60 h
half-life at 0.291 mg/mL (in vitro; human, human serum, t1/2 in human serum): 60 ± 6 h
S. aureus MIC50 ([3]; MRSA clinical isolates, n=20): 6.25 µM and 6.3 µM
S. aureus MIC90 ([3]; MRSA clinical isolates, n=20): 12.5 µM
S. aureus (SA) MIC ([3]; SA strain 766): 6.25 µM
S. aureus (SA) MIC ([3]; SA strain 4084-1): 12.5 µM
S. aureus (SA) MIC ([3]; SA strain 4094): 12.5 µM
S. aureus (SA) MIC ([3]; SA strain 6151-1): 12.5 µM
S. aureus (SA) MIC ([3]; SA strain 10337-1): 6.25 µM
S. aureus (SA) MIC ([3]; SA strain 10630-1): 6.25 µM
S. aureus (SA) MIC ([3]; SA strain 20021-1): 6.25 µM
S. aureus (SA) MIC ([3]; SA strain 20457-1): 12.5 µM
S. aureus (SA) MIC ([3]; SA strain 28283): 6.25 µM
S. aureus (SA) MIC ([3]; SA strain 28310): 6.25 µM
S. aureus (SA) MIC ([3]; SA strain 28355): 6.25 µM
S. aureus (SA) MIC ([3]; SA strain 30138-2): 3.125 µM
S. aureus (SA) MIC ([3]; SA strain 30493-1): 6.25 µM
S. aureus (SA) MIC ([3]; SA strain 32120-1): 6.25 µM
S. aureus (SA) MIC ([3]; SA strain 38878-2): 3.125 µM
S. aureus (SA) MIC ([3]; SA strain 87066): 12.5 µM
S. aureus (SA) MIC ([3]; SA strain 87112): 12.5 µM
S. aureus (SA) MIC ([3]; SA strain 87180): 6.25 µM
S. aureus (SA) MIC ([3]; SA strain 88,531): 12.5 µM
S. aureus (SA) MIC ([3]; SA strain 902674): 12.5 µM
MIC (E. coli; E. coli DS377): 0.8 µM (≈ 4.4 µg/mL)
MIC (E. coli; E. coli K12): 0.8 µM (≈ 4.4 µg/mL)
P. aeruginosa (PA) MIC ([4]; PA strain 95302): 1.57 µM
P. aeruginosa (PA) MIC ([4]; PA strain 119133): 3.125 µM
P. aeruginosa (PA) MIC ([4]; PA strain 167482): 0.4 µM
P. aeruginosa (PA) MIC ([4]; PA strain 200174): 0.4 µM
P. aeruginosa (PA) MIC ([4]; PA strain 219686): 3.125 µM
P. aeruginosa (PA) MIC ([4]; PA strain 254831): 1.5 µM
P. aeruginosa (PA) MIC ([4]; PA strain 262309): 1.5 µM
P. aeruginosa (PA) MIC ([4]; PA strain 298473): 0.78 µM
P. aeruginosa (PA) MIC ([4]; PA strain 466035): 0.4 µM
P. aeruginosa (PA) MIC ([4]; PA strain 486442): 0.78 µM
P. aeruginosa (PA) MIC ([4]; PA strain 618154): 0.78 µM
P. aeruginosa (PA) MIC ([4]; PA strain 678449): 3.125 µM
P. aeruginosa (PA) MIC ([4]; PA strain 774248): 12.5 µM
P. aeruginosa (PA) MIC ([4]; PA strain 815159): 0.78 µM
P. aeruginosa (PA) MIC ([4]; PA strain 844265): 0.78 µM
P. aeruginosa (PA) MIC ([4]; PA strain 857950): 6.25 µM
P. aeruginosa (PA) MIC ([4]; PA strain 864684): 3.125 µM
P. aeruginosa (PA) MIC ([4]; PA strain 894496): 0.78 µM
P. aeruginosa (PA) MIC ([4]; PA strain 894925): 3.125 µM
P. aeruginosa (PA) MIC ([4]; PA strain 900719): 3.125 µM
